# According to US6602664B2 (priority 1998, dated 2003):
# Experiments:
# mutant strains of HIV-1 = assay: microbe, parasite or virus in culture; format: cell-based; details: for EC50 / Slope: human PBM cells
# Description: Cells and viruses. […] Antimicrobial Agents Chemother 1992;36(11): 2423-2431.
# Cell pellets were washed, centrifuged, lysed and the proviral DNA extracted as previously described. Cytotoxicity of the compounds was determined using the Promega Cell Titer 96 dye uptake assay (Madison, Wis.) in 1-2 day PHA-stimulated PBM cells after 5 days in culture. The median effective concentration (EC50) and inhibitory concentration (IC50) were derived from the computer-generated median effect plot of the dose-effect data, as described previously. […]
# The mutant viruses tested are as follows: xxBRU Pitt (wild type HIV-1; the backbone used to prepare the other site directed mutagens); M184V (methionine to valine change at codon 184); K65R (lysine to arginine change at codon 65); T215Y (threonine to tyrosine change at codon 215); M184V/T215Y (virus with both mutations); 215/41 (virus with two mutations (threonine to tyrosine change at codon 215) and M4 1L (methionine to leucine change at codon 41)); 4X AZT (virus with four mutations associated with AZT therapy); D67N (aspartic acid to asparagine change at codon 67); K70R lysine to arginine change at codon 70); T215Y (defined as above); K219Q (lysine to glutamine change at codon 219); 964 pre (virus from a patient before they were on AZT therapy, and thus AZT sensitive); and 964 post (virus taken from the same patient after they were on AZT therapy, and thus is AZT resistant).
# [1] = U.S. Pat. No. 4,916,122; cited from earlier work
compound,measurement,setting,value
"[N-]=[N+]=N[C@H]1C[C@H](n2ccc(=O)[nH]c2=O)O[C@@H]1CO [CS-87, 3′-Azido-2′,3′-dideoxyuridine]",FI^50 (fold increase EC50),mutant strains of HIV-1,87
same,EC50,mutant strains of HIV-1; 4X AZT Pitt.,17000 nM
same,Slope,mutant strains of HIV-1; 4X AZT Pitt.,0.54
same,EC50,mutant strains of HIV-1; 215/4I Pitt.,19100 nM
same,Slope,mutant strains of HIV-1; 215/4I Pitt.,0.95
same,GFI^90 (fold increase EC90),mutant strains of HIV-1; AZT-Post (964 post),14
same,EC50,mutant strains of HIV-1; AZT-Post (964 post),63000 nM
same,Slope,mutant strains of HIV-1; AZT-Post (964 post),1.64
same,EC50,mutant strains of HIV-1; AZT-Sen. (964 pre),11100 nM
same,Slope,mutant strains of HIV-1; AZT-Sen. (964 pre),0.65 ± 0.08
same,sensitivity of AZT-exposed virus,mutant strains of HIV-1; AZT-exposed virus,deceased sensitivity
same,EC50,mutant strains of HIV-1; HIV-1/LAI,4700 nM
same,Slope,mutant strains of HIV-1; HIV-1/LAI,0.70
same,EC50,"mutant strains of HIV-1; Human immunodeficiency virus 1, PBMC, 4X AZT Pitt.",300 nM
same,EC50,"mutant strains of HIV-1; Human immunodeficiency virus 1, PBMC, 215/4I Pitt.",2100 nM
same,EC50,"mutant strains of HIV-1; Human immunodeficiency virus 1, PBMC, AZT-Post (964 post)",16500 nM
same,EC50,"mutant strains of HIV-1; Human immunodeficiency virus 1, PBMC, AZT-Sen. (964 pre)",400 nM
same,EC50,"mutant strains of HIV-1; Human immunodeficiency virus 1, PBMC, HIV-1/LAI",200 nM
same,EC50,"mutant strains of HIV-1; Human immunodeficiency virus 1, PBMC, K65R Pitt.",1100 nM
same,EC50,"mutant strains of HIV-1; Human immunodeficiency virus 1, PBMC, L74V Pitt.",600 nM
same,EC50,"mutant strains of HIV-1; Human immunodeficiency virus 1, PBMC, M184V Pitt.",600 nM
same,EC50,"mutant strains of HIV-1; Human immunodeficiency virus 1, PBMC, M184V/T215Y Pitt.",1100 nM
same,EC50,"mutant strains of HIV-1; Human immunodeficiency virus 1, PBMC, T215Y Pitt.",300 nM
same,EC50,"mutant strains of HIV-1; Human immunodeficiency virus 1, PBMC, xxBRU Pitt. (wild type)",1100 nM
same,EC50,mutant strains of HIV-1; K65R Pitt.,12000 nM
same,Slope,mutant strains of HIV-1; K65R Pitt.,0.92 ± 0.07
same,EC50,mutant strains of HIV-1; L74V Pitt.,3800 nM
same,Slope,mutant strains of HIV-1; L74V Pitt.,1.18 ± 0.10
same,EC50,mutant strains of HIV-1; M184V Pitt.,2400 nM
same,Slope,mutant strains of HIV-1; M184V Pitt.,1.55
same,EC50,mutant strains of HIV-1; M184V/T215Y Pitt.,5900 nM
same,Slope,mutant strains of HIV-1; M184V/T215Y Pitt.,1.40
same,EC50,mutant strains of HIV-1; T215Y Pitt.,2700 nM
same,Slope,mutant strains of HIV-1; T215Y Pitt.,1.00 ± 0.11
same,sensitivity of site directed mutant viruses,mutant strains of HIV-1; mutations at other than the 70 codon in the RT region,remain sensitive
same,EC50,mutant strains of HIV-1; xxBRU Pitt. (wild type),7300 nM
same,Slope,mutant strains of HIV-1; xxBRU Pitt. (wild type),1.16
same,toxicity compared with AZT,[1],lower toxicity than AZT
